Experimental data reported in ChEMBL document CHEMBL1201862, “PubChem BioAssay data set” (2004).
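Cells were grown in 96-well plates and exposed to each compound for 48 hours at five concentrations; endpoints were interpolated linearly between bracketing concentrations, or set to the highest concentration if not reached. The concentration for 50% growth inhibition is given as GI50.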 Activity calls are given as the source filed them. No stated cut-off is given here; in the data, active = GI50 up to about 1.1 µM and inactive = higher.

What was measured:
Experiment in all cases: NCI anticancer screen, dose series, 48 h
[1] = system: MDA-MB-231
[2] = system: M14
[3] = system: MDA-MB-435
[4] = system: NCI/ADR-RES
[5] = system: OVCAR-3
[6] = system: SF-295
[7] = system: SF-539
[8] = system: NCI-H460
[9] = system: SW-620
[10] = system: NCI-H226
[11] = system: HCT-116
[12] = system: SNB-75
[13] = system: TK-10
[14] = system: UACC-62
[15] = system: ACHN
[16] = system: 786-0
[17] = system: SR
[18] = system: RXF 393
[19] = system: HT-29
[20] = system: NCI-H522

Measured: GI50

O=[N+]([O-])C(=C/C1CCCCC1)/C(=C\C1CCCCC1)[N+](=O)[O-]
inactive: [1] 2.73 µM | [2] 4.05 µM | [3] 4.56 µM | [4] 2.47 µM | [5] 9.23 µM | [6] 16.3 µM | [7] 2.18 µM | [8] 5.16 µM | [9] 3.35 µM | [10] 7.28 µM | [11] 6.43 µM | [12] 14.1 µM | [13] 6.27 µM | [14] 5.7 µM | [15] 3.5 µM | [16] 1.84 µM | [17] 1.8 µM | [18] 1.49 µM | [19] 5.48 µM | [20] 1.8 µM

NC(=O)/C(=C\c1ccncc1)c1cccc2ccccc12
inactive: [1] > 100 µM | [2] 55.1 µM | [3] > 100 µM | [4] > 100 µM | [5] > 100 µM | [6] > 100 µM | [7] > 100 µM | [8] 45.1 µM | [9] > 100 µM | [10] 38 µM | [11] > 100 µM | [12] > 100 µM | [13] > 100 µM | [14] 25.3 µM | [15] > 100 µM | [16] > 100 µM | [17] 53.3 µM | [18] > 100 µM | [19] > 100 µM | [20] > 100 µM

CN(c1ccccc1Cl)S(=O)(=O)c1ccccc1[N+](=O)[O-]
inactive: [1] 37.2 µM | [2] 17.3 µM | [3] 28.7 µM | [4] 27.9 µM | [5] 37.8 µM | [6] 71.4 µM | [7] 35.9 µM | [8] 33.9 µM | [9] 78.9 µM | [10] 41.5 µM | [11] 33.6 µM | [12] 40.6 µM | [13] 82 µM | [14] 27.1 µM | [15] > 10 µM | [16] 58.9 µM | [17] 35.5 µM | [18] 29 µM | [19] 34.3 µM | [20] 32.7 µM

CC(=O)c1sc2c(c1OC(=O)c1ccccc1)c(=O)n(-c1ccccc1)c(=S)n2-c1ccccc1
inactive: [1] 7.93 µM | [2] 3.4 µM | [3] 4.24 µM | [4] 4.65 µM | [5] 17.9 µM | [6] 2.48 µM | [7] 2.32 µM | [8] 11.2 µM | [9] 15.2 µM | [10] 2.62 µM | [11] 13.4 µM | [12] 2.26 µM | [13] 24 µM | [14] 13.4 µM | [15] 3.03 µM | [16] 2.9 µM | [17] 3.95 µM | [18] 2.86 µM | [19] 2.93 µM | [20] 28.6 µM

COc1cc(O)c2c(c1)OCC(Cc1ccc(O)cc1)C2=O (stereo not given)
inactive: [1] > 100 µM | [2] > 100 µM | [3] > 100 µM | [4] > 100 µM | [5] 60.4 µM | [6] 51.1 µM | [7] > 100 µM | [8] > 100 µM | [9] > 100 µM | [10] > 100 µM | [11] > 100 µM | [12] 74.3 µM | [13] > 100 µM | [14] > 100 µM | [15] > 100 µM | [16] > 100 µM | [17] 55.8 µM | [18] 21.1 µM | [19] > 100 µM | [20] > 100 µM
